For 1 molecule, Activity and viability results are on record in ChEMBL document CHEMBL5215006, “Antitumor Activity of Piceamycin by Upregulation of N-Myc Downstream-Regulated Gene 1 in Human Colorectal Cancer Cells” (J Nat Prod, 2022).

Assay [1] concerns SW480. The assay can be described thus: Induction of apoptosis in human SW480 cells assessed as late apoptotic cells at 1.4 uM incubated for 48 hrs by Annexin V-FITC/PI staining based flow cytometry analysis (Rvb= 5.26%). The format is functional. (Flow cytometry measures light scatter and fluorescence of single cells or particles in a stream.)
For assay [2], the system named is HCT-116. The assay can be described thus: Induction of apoptosis in human HCT-116 cells assessed as late apoptotic cells at 0.3 uM incubated for 48 hrs by Annexin V-FITC/PI staining based flow cytometry analysis (Rvb= 3.18%). The format is functional.
In assay [3] the test system is HCT-116. The assay can be described thus: Induction of apoptosis in human HCT-116 cells assessed as viable cells at 0.15 uM incubated for 48 hrs by Annexin V-FITC/PI staining based flow cytometry analysis (Rvb= 94.18%). Format: functional. The following applies: read-out: Activity.
Assay [4] concerns HCT-116. The assay can be described thus: Cell cycle arrest in human HCT-116 cells assessed as accumulation at Sub-G1 phase at 0.15 uM incubated for 24 hrs by RNaseA/propidium iodide staining based flow cytometry (reference value: 3.66 %). The format is functional.
Assay [5] concerns HCT-116. The assay can be described thus: Cell cycle arrest in human HCT-116 cells assessed as downregulation of cyclin-D1 protein expression at 0.075 to 0.3 uM incubated for 24 hrs by immunoblotting assay. Conditions: dose 0.075-0.3 µM. Format: functional, cell-based.
For assay [6], the system named is SW480. The assay can be described thus: Cell cycle arrest in human SW480 cells assessed as accumulation at G0/G1 phase at 0.7 uM incubated for 24 hrs by RNaseA/propidium iodide staining based flow cytometry (reference value: 54.49 %). The format is functional.
The subject of assay [7] is SW480. The assay can be described thus: Antitumor activity against human SW480 cells assessed as decrease in c-Myc expression at 0.35 to 1.4 uM incubated for 24 hrs by immunoblotting assay. Format: functional, cell-based. The following applies: dose 0.35-1.4 µM. (In general: In western blotting, separated proteins are transferred to a membrane and probed.)
The subject of assay [8] is SW480. The assay can be described thus: Cell cycle arrest in human SW480 cells assessed as accumulation at Sub-G1 phase at 0.35 uM incubated for 24 hrs by RNaseA/propidium iodide staining based flow cytometry (reference value: 3.2 %). Format: functional.

Calls of active or inactive are those of the source. No cut-off for these calls is given here.

Turning to `C[C@@H]1\C=C/C=C/C=C\C=C\C=C\C(=O)C2=C(O)C(=O)C[C@@]2(C)/C=C/C=C\C=C/C(=O)NC1`, the Activity amounted to 44.51% in the assay with SW480 [1]; 14.94% with HCT-116 [2]; 5.1% with HCT-116 [4]; 62.43% in the assay on SW480 [6]; 5.1% with SW480 [8]. Also, in the assay on HCT-116 [3], the viability at 0.15 µM was 74.9%. For the same molecule, the result with HCT-116 [5] and in the assay with SW480 [7] was Active.
